Assay results taken from US20130237582A1, “PHARMACEUTICAL COMBINATION OF PACLITAXEL AND A CDK INHIBITOR” (Piramal Enterprises Limited, priority 2010, published 2013).

Key:
MDA-MB-468 [1] = assay: Cell cycle progression and apoptosis by flow cytometry (sub-G1); format: cell-based, human; conditions: 50 μM
Method: Before analysis, cells were washed twice with PBS to remove the fixative and re-suspended in PBS containing 50 μg/mL propidium iodide and 50 μg/mL RNaseA. After incubation at room temperature (20-35° C.) for 20 min, cells were analyzed using flow cytometry. A Becton Dickinson FACS Calibur flow cytometer (BD, USA) was used for these studies. The argon ion laser set at 488 nm was used as an excitation source. Cells with DNA content between 2n and 4n were designated as being in G1, S and G2/M phases of the cell cycle, as defined by the level of red fluorescence. […] The number of cells in each cell cycle compartment was expressed as a percentage of the total number of cells present. The results are shown in Table 3 and graphically presented in FIG. 3A (MCF-7 cell lines) and FIG. 3B (MDA-MB-231 cell lines).
Comparison of the effect of Compound A and PARP inhibitor BSI-201 (Iniparib developed by Sanofi-Aventis. BSI-201 is prepared in-house) on cell cycle progression and apoptosis was evaluated in two TNBC cell lines. The asynchronous human TNBC cell lines MDA-MB-231 and MDA-MB-468 were seeded in […] tissue culture flask at a density of 0.5×10^6 cells per flask in RPMI 1460 with 10% FCS. After 24 h, cells were treated either with 1.5 and 3.0 μM of Compound A or 50 μM of PARP inhibitor BSI-201 for 72 h. After the incubation cells were harvested (trypsinised) and processed as given in example 6.

VEGF = VEGF reporter gene based assay (M-9 cells); format: cell-based; conditions: Homo sapiens, hypoxia, 20-24 h, read-out: IC50 for VEGF inhibition under hypoxia
Method: A cell line M-9 is MDA-MB-231 which is stably co-transfected with the VEGF-Luc construct (VEGF promoter in pGL2-basic) and a plasmid containing the Geneticin (G418) resistance gene which forms VEGF promoter reporter gene. The expression of the reporter gene in the clone cells, as measured by luciferase activity, is stable.
The effect of Compound A on VEGF inhibition was evaluated using the VEGF reporter gene based assay.
Lysis Assay Buffer (1×) • Tris-Phosphate (pH 7.8)-125 mM, DTT-10 mM, EDTA-10 mM, Glycerol-50% and Triton X-100-5%.
Luciferase Assay Reagent (LAR) • Luciferase Assay Buffer-8 mL, 530 μM ATP-530 μL, 270 μM CoA-1 mL and 170 μM Luciferin-1 mL.
Luciferase Assay Buffer (LAB) (1×) • Tricin (pH 7.8)-20 mM, Magnesia Alba-1.07 mM, MgSO4-2.67 mM, EDTA-0.1 mM and DTT-33.3 mM. ATP Stock made in LAB=5.85 mg/mL CoA Stock made in LAB=2.1 mg/mL Luciferin Stock made in LAB=1.5 mg/mL
1. M-9 cells were sub-cultured and maintained in RPMI-1640 Medium with supplement of 10% FBS, and 4 μL/ml G418 (Stock 100 mg/mL) in a humidified incubator at 37° C. and 5% CO2. 2. Cells were seeded at density of 3×10^4 cells/well in 180 μL volume in tissue culture grade 96 well white plates as well as transparent plates and allowed to adhere for 16-20 h in humidified CO2 incubator (5% CO2) at 37° C. A total of two sets of plates were made, as the incubation conditions are different. 3. Compound A, Sutent® and BSI-201 were diluted in medium serially so that final desired concentrations are achieved in the respective wells. (not more than 0.5% concentration of DMSO in the wells). 4. INCUBATION CONDITIONS: One set of plates are incubated under ambient atmospheric condition with 5% CO2, referred hereafter as NORMOXIC/OXIC PLATE. […] To all the wells, 100 μL Luciferase Assay Reagent (LAR) are added, plates are immediately read for Luminescence on TOPCOUNT™ (Packard, USA). The percentage inhibitions and Inhibitory Concentration (IC50) or Effective Concentration (EC50) are calculated in comparison with Control (untreated) values. […]

MDA-MB-231 [2] = assay: Cytotoxicity assay using propidium iodide (PI); format: cell-based, human; conditions: Homo sapiens, 48 h treatment, PI assay
Method: (§1) The propidium iodide fluorescence assay (PI) was carried out according to the procedure mentioned in Anticancer Drugs, 1995, 6, 522-32. The assay was developed to characterize the in vitro growth of human tumor cell lines as well as to test the cytotoxic activity of the compounds. Propidium iodide (PI) was used as a dye, which penetrates only damaged cellular membranes. Intercalation complexes are formed by PI with double-stranded DNA, which effect an amplification of the fluorescence. After freezing the cells at −20° C. for 24 h, PI had access to total DNA leading to total cell population counts. Background readings were obtained from cell-free wells containing media and propidium iodide. The human breast cancer cell lines (i.e. […] Control wells were treated with vehicle (DMSO). At the end of the incubation periods, the plates were assayed using PI cytotoxicity assay protocol. Percent cytoxicity was calculated at various drug concentrations and from the graph plotted the IC50 values were determined.

MDA-MB-231 [3] = assay: Combination in vitro cytotoxicity (PI) assay; format: cell-based; conditions: Homo sapiens, then CM 72 h, read-out: % inhibition of Group IA
Method: The propidium iodide fluorescence assay (PI) was carried out according to the procedure mentioned in Anticancer Drugs, 1995, 6, 522-32.
The assay was developed to characterize the in vitro growth of human tumor cell lines as well as to test the cytotoxic activity of the test compounds. Propidium iodide (PI) was used as a dye, which penetrates only, damaged cellular membranes. Intercalation complexes are formed by PI with double-stranded DNA, which effect an amplification of the fluorescence. After freezing the cells at −20° C. for 24 h, PI had access to total DNA leading to total cell population counts. Background readings were obtained from cell-free wells containing media and propidium iodide.
The human triple negative breast cancer cell line, MDA-MB-231 was seeded at a density of 1500-3000 cells/well in 180 μL of RPMI-1640 medium in a 96-well plate and incubated for about 16 h in humidified 5% CO2 incubator at 37±1° C. to allow the cells to adhere. The schedule consists of six treatment groups. In every treatment group, 20 μL of 10× compound (dissolved first in DMSO and then diluted in cell medium, final DMSO concentration not exceeding 0.5%) was used in the wells and the plate was incubated in humidified 5% CO2 incubator at 37±1° C. The medium was removed from the wells and washed with PBS. 100 μL of PI working solution (7 μg/mL) per well was added and the plates were stored at −80° C. for about 16 h. The plates were thawed and the fluorescence was measured using the POLARstar optima plate reader (USA) at excitation 536 nm and emission 590 nm.
(PI stock solution of 1 mg/mL was prepared by dissolving 1 mg PI in 1 mL of distilled water. PI working solution was prepared by adding 140 μL of stock solution to PBS to make up the volume to […] (7 μg/mL)).
The synergistic effects in TNBC MDA-MB-231 cell line have been evaluated using the CompuSyn software by Chou and Talalay, described in Pharmacological Reviews, 2006, 58, 621-681. Combination index (CI) is used to evaluate if a combination is additive, synergistic or antagonistic. CI<1 is synergistic, CI=1 is additive and CI>1 is antagonistic.

MDA-MB-468 [4] = assay: Cytotoxicity assay using propidium iodide (PI); format: cell-based, human; conditions: Homo sapiens, 48 h treatment, PI assay
Method: as §1

BT-549 = assay: Cytotoxicity assay using propidium iodide (PI); format: cell-based; conditions: Homo sapiens, 48 h treatment
Method: as §1

In the case of NC(=O)c1ccc(I)c([N+](=O)[O-])c1 [BSI-201, reference compound], the “% apoptosis at 72 h” value (MDA-MB-468 [1]) is reported as 12.67% and the IC50 (VEGF) is reported as > 100 µM.
For CC(=O)O[C@H]1C(=O)[C@@]2(C)[C@H]([C@H](OC(=O)c3ccccc3)[C@]3(O)C[C@H](OC(=O)[C@H](O)[C@@H](NC(=O)c4ccccc4)c4ccccc4)C(C)=C1C3(C)C)[C@]1(OC(C)=O)CO[C@@H]1C[C@@H]2O [Paclitaxel], the IC50 (MDA-MB-231 [2]) was 0.9 µM, the inhibition at 0.03 µM (MDA-MB-231 [3]; paclitaxel 0.03 μM 24 h) was -2.6% and the inhibition at 0.1 µM (MDA-MB-231 [3]; paclitaxel 0.1 μM 24 h) was 8.3%. The inhibition at 0.3 µM (MDA-MB-231 [3]; paclitaxel 0.3 μM 24 h) was 82.9%, the inhibition at 1 µM (MDA-MB-231 [3]; paclitaxel 1.0 μM 24 h) was 88.7% and the inhibition at 3 µM (MDA-MB-231 [3]; paclitaxel 3.0 μM 24 h) was 89.1%.
CCN(CC)CCNC(=O)c1c(C)[nH]c(/C=C2\C(=O)Nc3ccc(F)cc32)c1C [Sunitinib, reference compound] showed an IC50 (MDA-MB-231 [2]) of 7.8 µM, an IC50 (MDA-MB-468 [4]) of 10 µM and an IC50 (BT-549) of 18 µM. The IC50 (VEGF) was 15 µM.
